{
  "source": "patent US20050009744A1",
  "about": "“Treatment of congestive heart failure” (priority 2001, published 2005)",
  "origin": "cited, not measured here",
  "settings": "Lysko et al, J Cardiovasc Pharmacol 2000",
  "data": [
    {"smiles": "COc1ccccc1OCCNCC(O)COc1cccc2[nH]c3ccccc3c12", "note": "(stereo not shown) [Carvedilol, carvedilol]", "values": [
      {"measurement": "antioxidant activity", "value": "far greater antioxidant activity than e.g. metoprolol"}
    ]}
  ]
}
